According to US20250339391A1, “METHODS FOR EFFECTIVE MANAGEMENT OF PAIN” (South Rampart Pharma, Inc., priority 2024, published 2025):

Tests used:
Sprague-Dawley rats [1] = test: 5-day repeat-dose oral toxicity and toxicokinetics in Sprague-Dawley rats (non-GLP); assay type: in vivo, rat
Experimental: 4) A Dose-Range-Finding Oral Toxicity Study with SRP-001 in Sprague-Dawley Rats (Non-GLP) As part of a two-phase study, repeat-dose toxicity and toxicokinetics of SRP-001, when administered via oral gavage once daily to Sprague-Dawley rats for 5 d, was done (Calvert Labs/Altasciences, Scott Township, PA USA). The doses selected for Phase II were based on the results of Phase I. SRP-001 was administered to 20 naïve rats (5/group in Groups 5-8) once daily for 5 days via oral gavage for toxicology evaluation and once to 18 naïve rats (6/group in Groups 9-11) for toxicokinetic evaluation.
Mortality/morbidity was performed twice daily and once prior to sacrifice. Clinical observations were evaluated prior to each dose administration and approximately 1-3 h post-dose for animals in Groups 5-8. Body weights were recorded prior to randomization/selection, prior to dose administration on day 1 for animals in Groups 5-11, and prior to dose administration on day 5 for Groups 5-8. Food consumption was recorded for animals from Groups 5-8 on day 5. Blood for evaluation of hematology, coagulation and clinical chemistry and urine for urinalysis was collected from animals in Groups 5-8 on day 6. All animals in Groups 5-8 were sacrificed on […]. Selected tissues were harvested at necropsy, selected organs weighed, and selected tissues preserved. Blood for toxicokinetic evaluation was collected from animals in Groups 9-11 at selected timepoints on day 1 to ensure comprehensive data capture. These timepoints include 0 hour (pre-dose) and post-dose intervals of 1, 2, 4, 8, and 24 hours on both Day 1 and […] of the study. This schedule allows for a robust assessment of SRP-001's pharmacokinetic profile, including absorption, distribution, metabolism, and excretion and is in line with current FDA-guidelines for GLP studies.

Sprague-Dawley rats [2] = test: CFA inflammatory pain / von Frey with electronic detection (eVF); assay type: in vivo, rat; settings: behavioral assays
Beagle dogs = test: Single oral dose (capsule) toxicity and pharmacokinetic study in Beagle dogs (non-GLP); assay type: in vivo
Experimental: 2) A Single Oral Dose Toxicity and Pharmacokinetic Study of SRP-001 in Beagle Dogs (non-GLP) SRP-001 was prepared into capsules for oral administration. Three experimentally non-naïve Beagle dogs, at least 7 months old and weighing 7.7 to 10 kg prior to treatment initiation, were administered a single dose of 300 mg/kg SRP-001 (Calvert Labs/Altasciences, Scott Township, PA USA). On the day of dosing, animals were observed prior to dose administration, approximately 1-3 h post-dose, and once on day 2. Body weights were recorded for all animals prior to dose administration for the preparation of the capsules. Blood for bioanalytical evaluation was collected at selected timepoints on day 1. Following the completion of the study, surviving animals were not euthanized. They were returned to the Calvert colony for an appropriate washout period before possible use in a subsequent study. […] Plasma samples were collected at seven different time points post-dose.

healthy volunteers = test: Phase 1 safety and tolerability; assay type: in vivo, human
Experimental: A randomized, double-blind, placebo-controlled Phase 1 trial (ClinicalTrials.gov identifier: NCT05484414) was conducted to assess the safety, tolerability, food effect, pharmacokinetics (PK), and pharmacodynamics (PD) of single and multiple ascending doses of SRP-001 (Quotient Sciences, Miami FL USA; FIG. 3H and Online Methods). The trial was conducted in accordance with the International Council for Harmonisation of Technical Requirements for Pharmaceuticals for Human Use (ICH), Guideline for GCP: Consolidated Guidance (E6), attained Institutional Review Board approval, and all applicable regulatory requirements for Phase 1, First in Human clinical trials. Safety measurements and plasma samples to determine PK parameters were collected throughout the study for all subjects and reviewed by the Safety Review Committee. PK stopping criteria were established to assure that systemic exposure to SRP-001 was less than or equal to the systemic exposure achieved at the NOAEL doses in the 28-day repeat-dose toxicology studies in the rat and dog. The trial's Safety Advisory Committee has approved the publication of the Phase 1 results.
A two-part randomized, double-blind, placebo-controlled Phase 1 trial was conducted to assess the safety, tolerability, PK and PD of SRP-001 ascending doses (Quotient Sciences, Miami, FL USA). […]
Safety—Holter (continuous ECG) Monitoring: NHVs also underwent continuous ECG Holter monitoring from at least 1 h prior to dosing until 24 h post-dose, and resulting measurements were monitored consistently. […] Where any scheduled rest times were missed, where there was less than a 10-min rest period, or where the final 5 min of a rest period was interrupted (for example, by subject movement or loss of leads), a protocol deviation was recorded, and the Holter provider was informed. Loss of leads or interruption of the recording outside of the scheduled rest times was not considered a protocol deviation but was recorded in the source. […]

CCN(CC)C(=O)c1ccccc1S(=O)(=O)NCC(=O)Nc1ccc(O)cc1 [SRP-001, N,N-diethyl-2-[[2-(4-hydroxyanilino)-2-oxo-ethyl]sulfamoyl]benzamide]
liver weights and cholesterol (Sprague-Dawley rats [1]; 5 days oral gavage): increases in absolute and relative liver weights and increased cholesterol levels | tolerated dose (Sprague-Dawley rats [1]; Sprague-Dawley, rat, in vivo, 5 d): 1200 mg/kg | AUC and Cmax levels (Sprague-Dawley rats [1]; day 1 toxicokinetics): increased in a dose-dependent manner | half-life (Sprague-Dawley rats [1]; high dose): 6.86 h | Tmax (Sprague-Dawley rats [1]; low dose): 3 h | Tmax (Sprague-Dawley rats [1]; mid and high doses): 4.5 h | half-life (Sprague-Dawley rats [1]; mid dose): 6.19 h | locomotor activity or motor incoordination (Sprague-Dawley rats [2]): no overt alterations | tolerability (Beagle dogs; dog, in vivo, 300 mg/kg): well tolerated | bioavailability (Beagle dogs; single 300 mg/kg, capsules): poor bioavailability | emesis (healthy volunteers; Phase 1 MAD cohort): no emesis was reported | safety assessments (vital signs, ECG, laboratory tests) (healthy volunteers; SAD and MAD cohorts): revealed no abnormalities | tolerability / serious adverse events (healthy volunteers; oral nanosuspension, SAD and MAD cohorts, 42 subjects on SRP-001): no serious adverse events (SAEs) reported
